The text below walks through data of patent US20260048151A1, “HEMICYANINE PUSH-PULL DYES BASED ON CHROMENE ELECTRON DONORS” (UNIVERSITY OF CONNECTICUT, priority 2022, published 2026).

SMILES strings stand for the structures.

The nature of data set [1]: Absorption and emission spectra, fluorescence quantum efficiency in EtOH, PBS and lipid vesicles (MLV). It is filed as physicochemical. Conditions: for Fluorescence quantum efficiency (FQE): in lipid vesicle suspensions; for emission maximum: membrane-bound (MLV). The method, then:
FIGS. 2A-2C are plots showing absorption and emission spectra of 2a, in comparison with ElectroFluor630, in various solvent environments: MLV, EtOH, and PBS. Multilamellar lipid vesicle suspension (MLV) was prepared by sonicating soybean phosphatidylcholine in PBS buffer (2 mg/mL) to mimic the cell membrane environment. The emission spectra in ethanol and PBS buffer were scaled 10 and 20 times respectively relative to the emission spectra in MLV. Excitation wavelength is 580 nm for emission spectra.
All chemicals were purchased from commercial sources (Sigma Aldrich, Acros, TCI America, Combi-Blocks, and others) and used without further purification. Column chromatography was generally performed on COMBIFLASH NextGen 300 using normal phase silica columns except that for some final dye products amine silica columns were used. Thin layer chromatography (TLC) was carried out on EM 60 F-254 plastic TLC plates. NMR spectra were recorded on Varian 400 MHz, 500 MHz, and 800 MHz instruments at the UConn Heath Structural Biology Facility. All spectra are referenced internally to TMS or residual solvent signals. Electrospray ionization (ESI) high-resolution mass spectra (HRMS) were obtained on a QStar Elite (AB Sciex) at the Department of Chemistry, University of Connecticut. UV/Vis absorption spectra were recorded on a UV-Visible spectrophotometer (Shimadzu, UV-1601PC) and fluorescence emission spectra on a Horiba Fluorolog spectrofluorometer (Horiba, Inc., Edison, NJ). Fluorescence quantum yield for dyes was determined by a relative method using Rhodamine 6G (excited at 480 nm, FQY=0.95 in EtOH) or cresyl violet (excited at 580 nm, FQY=0.54 in MeOH) as the references.
Absorbance and the fluorescence properties of the new VSDs were determined. The absorption and emission spectra for 2a, together with ElectroFluor630, in aqueous buffer (PBS), ethanol, and when intercalated in the membrane of lipid vesicles are shown in FIGS. 2A-C. […] This is particularly advantageous for fluorescence imaging because background fluorescence from unbound dye is negligible. Another characteristic of the hemicyanine VSDs that is preserved by 2a in FIGS. 2A-C is the large Stokes shift between the excitation and emission maxima. 125 nm for the membrane-bound dye. This is also a benefit for fluorescence detection and imaging, as the fluorescence can be readily filtered from scattered exciting light. The broad wavelength window afforded by the spectra is also an important benefit for the design of experiments with multiple fluorescent sensors. For comparative purposes, certain VSDs are shown below.
As expected, the spectra are largely insensitive to alkyl substitution. Table 1 also includes data for ElectroFluor630 (aka Di-4-ANEQ (F) PTEA) for comparison. The absorption maxima of 2a in ethanol (EtOH), aqueous buffer (PBS) and when bound to lipid membranes (multilamellar vesicles, MLV) are red shifted by 77 nm, 63 nm and 63 nm, respectively, relative to ElectroFluor630, which is isostructural to 2a. […] The absorption and emission spectra of 2a, 2b, and 2c are all shifted to the red by 50-65 nm relative to ElectroFluor630.

The nature of data set [2]: Voltage sensitivity on voltage-clamped hemispherical lipid bilayer. Conditions: for Ex (excitation wavelength of optimal voltage sensitivity) / Voltage Sensitivity ΔF/F per 100 mV: long pass emission filter; for Voltage Sensitivity ΔF/F per 100 mV: magnitude at optimal Ex/Em. The source says: It is known that optimal voltage sensitivity can be obtained by measuring the compounds on a voltage-clamped hemispherical bilayer apparatus. The apparatus can include a patch-clamp amplifier, such as a HEKA EPC-8 patch-clamp amplifier. Measurements can be obtained by stepping the membrane potential between two different potentials for a set time lapse. such as, for example, −110 and −60 mV every 10 ms.
Testing VSDs in a voltage-clamped hemispherical lipid bilayer allows one to determine the sensitivity of the VSDs as a function of excitation wavelength. This system has a Teflon tube filled with KCl and is immersed in a KCl solution in a cuvette. A lipid bubble is blown at the tip of the tube and spontaneously forms a bilayer membrane. The VSD to be tested is introduced on one side of the bilayer, usually in the cuvette. Electrodes in the tube and in the cuvette allow the imposition of a voltage across the membrane and a tungsten lamp coupled to a monochromator allows excitation wavelength dependence of the fluorescence response to voltage steps to be determined. This screening approach has allows for the comparison of the efficacy of newly developed VSDs in a well-controlled, consistent manner and to also determine excitation and emission wavelengths with optimal.
Voltage sensitivities of 2a as a function of voltage is shown in FIG. 3A for excitation at 730 nm and 570 nm. The voltage response is linear over the range of −100 mV to +100 mV; 570 nm is slightly to the blue of the isosbestic point, accounting for the weak but inverted sensitivity at this wavelength. […] This opposite polarity at the blue and red edges underlies the ability to use electrochromic hemicyanine dyes for dual-wavelength ratio imaging. The precise location of the isosbestic point in the excitation wavelength depends on the emission filter used because the emission spectrum is also voltage dependent for hemicyanine dyes.
The magnitude and wavelengths of the optimal voltage sensitivities of all the VSDs on the voltage-clamped hemispherical bilayer are included in the third column of Table 1.

Data set [3] is described as follows: Optimal excitation wavelengths of existing VSDs. It is filed as physicochemical.
Another data set has as its system AtT20 cells. Nature of the data set: Voltage sensitivity in patch clamped tissue culture cells. The class given is cell-based. The source says: We were motivated by separate requests from a company, Tara Biosystems, and the academic lab of Dr. Jack Rogers (see letters of support), for cardiac applications requiring recording over the course of longer than a full day. This will require dyes with both improved persistence (i.e. long washout times) and photostability (to allow for recording over long periods without appreciable bleaching or phototoxicity). We addressed these requirements via synthesis of a fluorinated chromophore (to improve photostability) with lengthened alkyl chains (to improve the strength of membrane binding and therefore persistence); we are calling it ElectroFluor630p™ (630 for the optimal excitation wavelength and p for persistent). ElectroFluor630p™ is similar to ElectroFluor630™, except that the butyl chains have been replaced with pentyl chains. We characterized this new VSD on both our voltage clamped hemispherical bilayer and on AtT20 cells. […] In addition, we will follow-up on these measurements extending the excitation wavelengths to include 660 nm. This is expected to further increase sensitivity and is an important wavelength for commercialization since the Photoswitch Bolt system, which is being sold for high-throughput cardiac safety screening studies (see letter from Stephen Smith), uses 660 nm laser excitation.
Turning to Preliminary Results for Aim 2. we have already described our characterization of a new VSD in patch clamped tissue culture cells in FIG. 2.
On the technique in general: Patch clamp records ionic current or voltage across a cell membrane.

Another data set concerns in-vivo pig heart. Particulars: translational in-vivo pig model (Lee, et al., 2019); cited from earlier work.
Data set [4] in a line: Voltage sensitivity on voltage-clamped hemispherical lipid bilayer. Conditions: 560 nm excitation.
The mark [5] stands for this setting: in MLV (multilamellar lipid vesicles).

Regarding `CCCCCCN(CCCCCC)c1ccc2c(c1)OCC(/C=C/c1cc[n+](CCCS(=O)(=O)[O-])cc1F)=C2` [1c], the absorption maximum in data set [1] (in EtOH) is 579 nm. For the same compound, in data set [1] (setting [5]), the absorption maximum worked out at 534 nm. In data set [1] (in PBS), this compound showed an absorption maximum of 515 nm. In data set [1], the “Fluorescence quantum efficiency (FQE)” value is recorded as 0.22 and the emission maximum is reported as 675 nm. Also, in data set [2], the “Ex (excitation wavelength of optimal voltage sensitivity)” value is reported as 630 nm and the “Voltage Sensitivity ΔF/F per 100 mV” value turned out to be 11%.

`CCCCN(CCCC)c1ccc2cc(/C=C/C=C/c3cc[n+](CCC[N+](C)(C)C)c4ccccc34)ccc2c1.[Br-].[Br-]` [di-4-ANBDQPQ]: the optimal excitation in data set [3] is reported as 630 nm.

Regarding `CCCCCN(CCCCC)c1ccc2cc(/C=C/c3c(F)c[n+](CCC[N+](CC)(CC)CC)c4ccccc34)ccc2c1.[Br-].[Br-]` [ElectroFluor630p, Di-5-ANEQ(F)PTEA], the results for the “ΔF/F/100 mV” value with AtT20 cells (blue-edge excitation) and with AtT20 cells (red-edge excitation) were “+5.2%” and −19.4%, respectively. In the data set with AtT20 cells (ratio measurement), the “ΔR/R/100 mV (ratio blue/red excitation)” value turned out to be 29.3%.

Compound `CCCCN(CCCC)c1ccc2cc(/C=C/c3c(F)c[n+](CCC[N+](CC)(CC)CC)c4ccccc34)ccc2c1.[Br-].[Br-]` [ElectroFluor630, Di-4-ANEQ (F) PTEA, reference compound] had an absorption maximum in data set [1] (in EtOH) of 618 nm. In data set [1] (setting [5]), this compound displayed an absorption maximum of 547 nm. The absorption maximum in data set [1] (in PBS) is given as 565 nm. Moreover, in data set [1], the “Fluorescence quantum efficiency (FQE)” value stood at 0.10 and the emission maximum is 686 nm. Also, in data set [2], the “Ex (excitation wavelength of optimal voltage sensitivity)” value was determined as 645 nm and the “Voltage Sensitivity ΔF/F per 100 mV” value is 12%. Moreover, in data set [3], the “optimal dual excitation, lower wavelength” value was found to be 470 nm and the “optimal dual excitation, upper wavelength” value came to 630 nm. In the data set on in-vivo pig heart, the phototoxicity result is “minimal phototoxicity”.

As to `CCCCN(CCCC)c1ccc2cc(/C=C/c3cc[n+](CCCS(=O)(=O)[O-])cc3)ccc2c1` [Di-4-ANEPPS, reference compound], the absorption maximum in data set [1] (in EtOH) was 496 nm. Further, the absorption maximum in data set [1] (setting [5]) is recorded as 464 nm. The same compound yielded an absorption maximum in data set [1] (in PBS) of 447 nm. In addition, in data set [1], the “Fluorescence quantum efficiency (FQE)” value is 0.30 and the emission maximum is reported as 617 nm. Moreover, in data set [2], the “Ex (excitation wavelength of optimal voltage sensitivity)” value is reported as 550 nm and the “Voltage Sensitivity ΔF/F per 100 mV” value was 10%.

`CCCCCN(CCCCC)c1ccc2c(c1)OCC(/C=C/c1cc[n+](CCCS(=O)(=O)[O-])cc1F)=C2` [1b] returned an absorption maximum in data set [1] (in EtOH) of 580 nm. The absorption maximum in data set [1] (setting [5]) is listed as 540 nm. The compound also yielded an absorption maximum in data set [1] (in PBS) of 552 nm. For the same compound, in data set [1], the “Fluorescence quantum efficiency (FQE)” value stood at 0.25 and the emission maximum is on record as 677 nm. Besides, in data set [2], the “Ex (excitation wavelength of optimal voltage sensitivity)” value stood at 640 nm and the “Voltage Sensitivity ΔF/F per 100 mV” value is recorded as 8%.

The compound `CCCCCN(CCCCC)c1ccc2c(c1)OCC(/C=C/c1c(F)c[n+](CCC[N+](CC)(CC)CC)c3ccccc13)=C2.[Br-].[Br-]` [2b] registered an absorption maximum in data set [1] (in EtOH) of 700 nm. Moreover, in data set [1] (setting [5]), the absorption maximum was found to be 611 nm. The absorption maximum in data set [1] (in PBS) was 628 nm. Moreover, in data set [1], the “Fluorescence quantum efficiency (FQE)” value is 0.10 and the emission maximum came out at 736 nm. Also, in data set [2], the “Ex (excitation wavelength of optimal voltage sensitivity)” value was determined as 720 nm and the “Voltage Sensitivity ΔF/F per 100 mV” value stood at 10%.

In the case of `CCCCN(CCCC)c1ccc2c(c1)OCC(/C=C/c1c(F)c[n+](CCC[N+](CC)(CC)CC)c3ccccc13)=C2.[Br-].[Br-]` [2a], the results for the “red shift of absorption maximum relative to ElectroFluor630” value in data set [1] (bound to lipid membranes (MLV)), in data set [1] (in aqueous buffer (PBS)) and in data set [1] (in ethanol (EtOH)) were 63 nm, 63 nm and 77 nm, respectively. The absorption maximum was 701 nm in data set [1] (in EtOH), 614 nm in data set [1] (setting [5]) and 633 nm in data set [1] (in PBS). Further, in data set [1], the “Fluorescence quantum efficiency (FQE)” value stood at 0.10. Moreover, the “fluorescence enhancement upon binding to lipid membranes” value in data set [1] (lipid membranes vs unbound dye) is “over 100 fold”. Besides, the “fluorescence quantum efficiency despite bathochromic shift” value in data set [1] (membrane bound, vs ElectroFluor630) is recorded as “not diminished”. This compound also had an emission maximum in data set [1] of 739 nm. Further, the “Stokes shift between excitation and emission maxima” value in data set [1] (membrane-bound dye) amounted to 125 nm. Besides, the “ΔF/F/100 mV” value is listed as −17% in data set [2] (730 nm excitation) and “+3%” in data set [4]. For the same compound, in data set [2] (at 730 nm), the “excitation wavelength of voltage sensitivity higher than any previous VSDs” value is given as ~100 nm. In addition, the “Ex (excitation wavelength of optimal voltage sensitivity)” value in data set [2] turned out to be 730 nm. In data set [2], the “Voltage Sensitivity ΔF/F per 100 mV” value was 17%. The “voltage response of fluorescence” value in data set [2] (range −100 mV to +100 mV, excitation 730 nm and 570 nm) is given as “linear”.

Turning to `CCCCN(CCCC)c1ccc2c(c1)OCC(/C=C/c1cc[n+](CCCS(=O)(=O)[O-])cc1F)=C2` [1a], the absorption maximum in data set [1] (in EtOH) was 577 nm. The compound further displayed an absorption maximum in data set [1] (setting [5]) of 540 nm. The compound further came in with an absorption maximum in data set [1] (in PBS) of 546 nm. For the same compound, in data set [1], the “Fluorescence quantum efficiency (FQE)” value was found to be 0.31 and the emission maximum is 673 nm. Besides, in data set [2], the “shift to the red of results relative to the FIG. 1 dye” value is recorded as ~30 nm, the “Ex (excitation wavelength of optimal voltage sensitivity)” value was 660 nm and the “Voltage Sensitivity ΔF/F per 100 mV” value is 12%.
